# From patent EP0309424A2, “New amidino derivatives” (ISTITUTO DE ANGELI S.p.A., priority 1987, dated 1989)
# Counter-ions that a name gives are not always drawn.
# Target: T1, muscarinic receptors of the cerebral cortex (Rattus norvegicus, UniProt P08482)
# T1 construct: displacement of ^3H-pirenzepine from cerebral cortex homogenate; from tissue; host or cells: rat cerebral cortex homogenate
# T1 sequence (P08482 1-460): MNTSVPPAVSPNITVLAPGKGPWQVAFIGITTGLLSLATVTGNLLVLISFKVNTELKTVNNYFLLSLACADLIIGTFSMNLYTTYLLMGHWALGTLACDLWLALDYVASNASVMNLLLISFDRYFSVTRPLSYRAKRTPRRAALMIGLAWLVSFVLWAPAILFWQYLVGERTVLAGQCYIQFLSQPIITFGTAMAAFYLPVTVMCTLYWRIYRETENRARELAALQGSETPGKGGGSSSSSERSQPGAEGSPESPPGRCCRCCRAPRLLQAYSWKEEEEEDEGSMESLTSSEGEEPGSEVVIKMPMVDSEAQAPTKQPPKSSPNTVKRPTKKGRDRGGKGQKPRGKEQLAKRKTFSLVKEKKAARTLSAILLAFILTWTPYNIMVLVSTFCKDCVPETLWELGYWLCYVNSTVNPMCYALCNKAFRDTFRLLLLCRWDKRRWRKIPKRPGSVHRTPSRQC
# Assay: Antimuscarinic activity (in vitro binding studies): displacement of 3H-pirenzepine from cerebral cortex homogenate
# Set-up: species or system male CD-COOBBS rats
# Conditions: not given
# Procedure: Antimuscarinic activity was examined by studying the displacement of ^3H-pirenzepine from cerebral cortex homogenate according to the procedure reported below: • The cerebral cortex donors were male CD-COOBBS rats, 220-250 g body weight. The homogenization process was carried out in a Potter-Evelhjem apparatus in the presence of Na^+/Mg^++ HEPES buffer; pH 7.4 (100 mM NaCI, 10 mM MgC12, 20 mM HEPES), by filtering the suspension through two layers of cheesecloth. Binding curves for the under study compounds were derived indirectly from competition experiments against 0.5 nM ^3H-pirenzepine labelling the muscarinic receptors of the cerebral cortex. 1 ml of the homogenate was incubated for 45 min at 30° C in the presence of a marker ligand and different concentrations of the cold ligand, conditions under which equilibrium was reached as determined by appropriate association experiments. The incubation was terminated by centrifugation (12,000 rpm for 3 min) at room temperature using an Eppendorf microcentrifuge. The resultant pellet was washed twice with 1.5 ml saline to remove the free radioactivity and it was allowed to drain for some hours. The tips of the tubes containing the pellet were cut off and 200 µl of tissue solubilizer (Lumasolve, Lumac) were added and left to stand overnight. Radioactivity was then counted after addition of 4 ml of liquid scintillation mixture (Dimilume/Toluene 1:10 v:v, Packard)
# Non-specific binding avaraged less than 30%. KD values (dissociation constants) were obtained by non-linear regression analysis on the basis of a one binding site model with TOPFIT-pharmacokinetic programme package (G. HEINZEL, "Pharmacokinetics during drug development: data analysis and evaluation techniques" Eds. G. BOLZER and J.M. VAN ROSSUM; p. 207, G. Fisher, New York, 1982) after correction for the radioligand occupancy shift according to the equation: Ko = ICso/1 + *C/*KD, where "C and *KD represent the concentration and the dissociation constant of the radioligand used, respectively.
row,Structure (SMILES),Ki
1,"N=C(N)N1C2CCC1CC(OC(=O)C(CO)c1ccccc1)C2 (racemic) [Compound 1, N-guanyl-Noratropine]",7 nM
2,"CC(=N)N1C2CCC1CC(OC(=O)C(CO)c1ccccc1)C2 (racemic) [Compound 64, N-iminoethyl-noratropine]",3.4 nM
3,"CC(=N)N1C2CC(OC(=O)C(CO)c3ccccc3)CC1C1OC12 (single isomer, unassigned; (-)) [Compound 65, (-)-N-iminoethyl-norscopolamine]",2 nM

# Same assay, conditions: competition against 0.5 nM 3H-pirenzepine, rat cerebral cortex homogenate, 45 min at 30° C, corrected for radioligand occupancy shift; read-out: Dissociation constants (KD) for 3H-pirenzepine binding
row,Structure (SMILES),Ki
1,"N=C(N)N1CCN(CC(O)(c2ccccc2)C2CCCCC2)CC1 (stereo not shown) [Compound 4, N-guanyl-N'-[(2-phenyl-2-cyclohexyl-2-hydroxy)-ethyl]-piperazine]",17 nM
2,"N=C(N)N1CCC(OC(=O)C(c2ccccc2)c2ccccc2)CC1 [Compound 14, Benzeneacetic acid,a-phenyl-,1-guanyl-4-piperidinyl ester]",15 nM
3,"N=C(N)N1CCC(CC(O)(c2ccccc2)c2ccccc2)CC1 [Compound 24, 2-[(N-guanyl-piperidin-4-yl)]-1,1-diphenyl-ethanol]",38 nM
4,"CN=CN1CCC(=C(c2ccccc2)c2ccccc2)CC1 [Compound 28, Piperidine,4-(diphenylmethylene)-,1-[N-methyl-(iminomethyl)]]",32 nM
5,"N=CN1CCC(OC(=O)C(c2ccccc2)c2ccccc2)CC1 [Compound 34, Benzeneacetic acid,α-phenyl,1-(iminomethyl)-4-piperidinyl ester, hydrochloride]",4.4 nM
6,"N=CN1CCN(CC(O)(c2ccccc2)C2CCCCC2)CC1 (stereo not shown) [Compound 35, N-iminomethyl-N'-[(2-hydroxy-2-phenyl-2-cydohexyl)-ethyl]-piperazine]",12 nM
7,"CC(=N)N1CCN(CC(O)(c2ccccc2)C2CCCCC2)CC1 (stereo not shown) [Compound 62, N-(iminoethyl)-N'-[(2-hydroxy-2-phenyl-2-cyclohexyl)ethyl]-piperazine]",30 nM
